Test results published in US20200101068A1, “Heteroaryl Derivatives as PARP Inhibitors” (Lupin Limited, priority 2015, published 2020).

target: T1, PARP1 (Homo sapiens, UniProt P09874); assay: PARP1 biochemical assay (BPS Bioscience kit, chemiluminescent); details: histone-coated plate, biotinylated NAD+, 60 min at 25° C., luminescence; read-out: PARP 1 inhibition IC50
T1 construct: purchased BPS Bioscience
Experimental: Example 16: PARP1 Biochemical Assay
The assay was performed using BPS Bioscience kit. The 96-well strip plate was coated with 50 μl of histone mixture and incubated at 4° C. overnight. The next day, the wells were blocked by adding 100 μl of blocking buffer. The plate was washed and 25 μl of appropriate concentration of PARP1 (25-75 ng/well) was added in all of the Test and Positive control wells. In the Negative control wells, the enzyme was replaced with 25 μl of water. 5 μl each of 10× PARP assay buffer and activated DNA was added in all the wells (Test, Positive and Negative control wells). 10× concentration of the test compounds were prepared and 5 μl test compounds were added to the respective wells. The reaction volume was made up to 45 μl by adding water to all of the wells. 5 μl of 10× PARP assay mixture containing biotinilated NAD^+ was added in each well and the plate was incubated at ambient temperature (25° C.) for 60 min. After washing the plate 50 μl of Streptavidin-HRP was added in each well, the plate was incubated at RT for 30 min. The plate was washed and the luminescence was read in PHERAStar plate reader after adding 100 μl of chemiluminescent substrate.
PARP inhibition was calculated using the following formula:
% PARP inhibition=100−[(RLU test compound treated sample−RLU negative control)/(RLU Positive control−RLU negative control)×100]
IC50 values were calculated by plotting % inhibition against the respective concentrations of test compounds using GraphPad Prism 5.

T1 sequence (P09874 whole entry): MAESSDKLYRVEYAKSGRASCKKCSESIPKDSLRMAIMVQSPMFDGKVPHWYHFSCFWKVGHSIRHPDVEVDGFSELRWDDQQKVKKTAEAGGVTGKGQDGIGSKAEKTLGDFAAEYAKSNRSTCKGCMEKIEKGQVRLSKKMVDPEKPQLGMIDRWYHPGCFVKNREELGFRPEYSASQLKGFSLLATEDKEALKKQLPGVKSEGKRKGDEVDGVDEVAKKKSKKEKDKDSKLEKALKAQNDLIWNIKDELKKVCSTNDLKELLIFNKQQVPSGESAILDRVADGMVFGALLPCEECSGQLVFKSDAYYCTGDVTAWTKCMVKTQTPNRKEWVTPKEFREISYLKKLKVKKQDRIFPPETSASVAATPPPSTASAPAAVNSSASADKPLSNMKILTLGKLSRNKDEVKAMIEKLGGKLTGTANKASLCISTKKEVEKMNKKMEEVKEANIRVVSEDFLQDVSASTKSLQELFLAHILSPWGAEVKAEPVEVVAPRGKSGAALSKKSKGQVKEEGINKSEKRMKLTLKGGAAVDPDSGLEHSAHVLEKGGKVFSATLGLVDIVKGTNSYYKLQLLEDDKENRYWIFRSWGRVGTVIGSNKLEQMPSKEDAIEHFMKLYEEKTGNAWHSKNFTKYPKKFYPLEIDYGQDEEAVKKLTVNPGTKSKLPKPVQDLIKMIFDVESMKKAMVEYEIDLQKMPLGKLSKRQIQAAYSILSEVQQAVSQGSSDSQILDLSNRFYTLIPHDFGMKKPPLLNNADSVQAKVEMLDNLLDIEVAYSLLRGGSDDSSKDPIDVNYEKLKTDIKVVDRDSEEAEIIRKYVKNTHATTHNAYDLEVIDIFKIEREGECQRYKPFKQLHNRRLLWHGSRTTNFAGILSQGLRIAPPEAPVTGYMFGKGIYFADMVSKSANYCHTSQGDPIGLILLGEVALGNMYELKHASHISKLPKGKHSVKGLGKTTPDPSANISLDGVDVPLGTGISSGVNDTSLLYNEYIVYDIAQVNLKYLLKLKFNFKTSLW

| SMILES | IC50 [nM] |
| --- | --- |
| C[C@@H]1CN(c2ccc(C#N)cc2)CCN1[C@@H]1C=C(c2cc3ncccc3c(=O)[nH]2)CC1 (racemic) [Compound 15, 4-((R)-3-methyl-4-((S/R)-3-(5-oxo-5,6-dihydro-1,6-naphthyridin-7-yl)cyclopent-2-en-1-yl)piperazin-1-yl)benzonitrile] | 5.1 to 50 |
| N#Cc1ccc(N2CCN([C@@H]3CC[C@H](c4cc5ncccc5c(=O)[nH]4)C3)CC2)cc1 (single isomer, unassigned) [Compound 11] | 0.5 to 5 |
| N#Cc1ccc(N2CCN([C@@H]3CC[C@@H](c4cc5ncccc5c(=O)[nH]4)C3)CC2)cc1 (single isomer, unassigned) [Compound 12] | 5.1 to 50 |
| C[C@@H]1CN(c2ccc(C#N)cc2)CCN1C1C=C(c2cc3ncccc3c(=O)[nH]2)CC1 (single isomer, unassigned) [Compound 14] | 0.5 to 5 |
| N#Cc1ccc(N2C[C@@H]3C[C@H]2CN3C2C=C(c3cc4ncccc4c(=O)[nH]3)CC2)cc1 (single isomer, unassigned) [Compound 16] | 5.1 to 50 |
| N#Cc1ccc(N2CCN([C@H]3C=C(c4cc5ncccc5c(=O)[nH]4)CC3)CC2)cc1 [Compound 1, (R)-4-(4-(3-(5-oxo-5,6-dihydro-1,6-naphthyridin-7-yl)cyclopent-2-en-1-yl)piperazin-1-yl)benzonitrile] | 0.5 to 5 |
| N#Cc1ccc(N2CCN([C@H]3C=C(c4cc5ncc(F)cc5c(=O)[nH]4)CC3)CC2)cc1 [Compound 2, (R)-4-(4-(3-(3-fluoro-5-oxo-5,6-dihydro-1,6-naphthyridin-7-yl)cyclopent-2-en-1-yl)piperazin-1-yl)benzonitrile] | 0.5 to 5 |
| Cc1ccccc1N1CCN([C@H]2C=C(c3cc4ncccc4c(=O)[nH]3)CC2)CC1 [Compound 3, (R)-7-(3-(4-(o-tolyl)piperazin-1-yl)cyclopent-1-en-1-yl)-1,6-naphthyridin-5(6H)-one] | 0.5 to 5 |
| N#Cc1ccc(N2CCN([C@@H]3C=C(c4cc5ncccc5c(=O)[nH]4)CC3)CC2)cc1 [Compound 4, (S)-4-(4-(3-(5-oxo-5,6-dihydro-1,6-naphthyridin-7-yl)cyclopent-2-en-1-yl)piperazin-1-yl)benzonitrile] | 5.1 to 50 |
| Cc1ccc2c(=O)[nH]c(C3=C[C@H](N4CCN(c5ccc(C#N)cc5)CC4)CC3)cc2n1 [Compound 6, (R)-4-(4-(3-(2-methyl-5-oxo-5,6-dihydro-1,6-naphthyridin-7-yl)cyclopent-2-en-1-yl)piperazin-1-yl)benzonitrile] | 0.5 to 5 |
| N#Cc1ccc(N2CCN([C@H]3C=C(c4cc5ncc(N)cc5c(=O)[nH]4)CC3)CC2)cc1 [Compound 7, (R)-4-(4-(3-(3-amino-5-oxo-5,6-dihydro-1,6-naphthyridin-7-yl)cyclopent-2-en-1-yl)piperazin-1-yl)benzonitrile] | 0.5 to 5 |
| N#Cc1ccc(N2CCN([C@H]3C=C(c4[nH]c(=O)c5cccnc5c4[N+](=O)[O-])CC3)CC2)cc1 [Compound 8, (R)-4-(4-(3-(8-nitro-5-oxo-5,6-dihydro-1,6-naphthyridin-7-yl)cyclopent-2-en-1-yl)piperazin-1-yl)benzonitrile] | 0.5 to 5 |
| Cc1c(C2=C[C@H](N3CCN(c4ccc(C#N)cc4)CC3)CC2)[nH]c(=O)c2cccnc12 [Compound 9, (R)-4-(4-(3-(8-methyl-5-oxo-5,6-dihydro-1,6-naphthyridin-7-yl)cyclopent-2-en-1-yl)piperazin-1-yl)benzonitrile] | 0.5 to 5 |
| Cc1c(C2=C[C@@H](N3CCN(c4ccc(C#N)cc4)CC3)CC2)[nH]c(=O)c2cccnc12 [Compound 10, (S)-4-(4-(3-(8-methyl-5-oxo-5,6-dihydro-1,6-naphthyridin-7-yl)cyclopent-2-en-1-yl)piperazin-1-yl)benzonitrile] | 0.5 to 5 |
| N#Cc1ccc(N2CCN([C@H]3C=C(c4cc5ncccc5c(=O)[nH]4)CC3)CC2=O)cc1 [Compound 13, (R)-4-(2-oxo-4-(3-(5-oxo-5,6-dihydro-1,6-naphthyridin-7-yl)cyclopent-2-en-1-yl)piperazin-1-yl)benzonitrile] | 5.1 to 50 |
| CNC(=O)c1ccc(N2CCN([C@H]3C=C(c4cc5ncccc5c(=O)[nH]4)CC3)CC2)cc1 [Compound 18, (R)—N-methyl-4-(4-(3-(5-oxo-5,6-dihydro-1,6-naphthyridin-7-yl)cyclopent-2-en-1-yl)piperazin-1-yl)benzamide] | 0.5 to 5 |
| NC(=O)c1ccc(N2CCN([C@H]3C=C(c4cc5ncccc5c(=O)[nH]4)CC3)CC2)cc1 [Compound 19, (R)-4-(4-(3-(5-oxo-5,6-dihydro-1,6-naphthyridin-7-yl)cyclopent-2-en-1-yl)piperazin-1-yl)benzamide] | 0.5 to 5 |

| SMILES | IC50 [nM] |
| --- | --- |
| CCOC(=O)c1ccc(N2CCN([C@H]3C=C(c4cc5ncccc5c(=O)[nH]4)CC3)CC2)cc1 [Compound 20, Ethyl (R)-4-(4-(3-(5-oxo-5,6-dihydro-1,6-naphthyridin-7-yl)cyclopent-2-en-1-yl)piperazin-1-yl)benzoate] | 0.5 to 5 |
| O=c1[nH]c(C2=C[C@H](N3CCN(c4ccccc4)CC3)CC2)cc2ncccc12 [Compound 21, (R)-7-(3-(4-phenylpiperazin-1-yl)cyclopent-1-en-1-yl)-1,6-naphthyridin-5(6H)-one] | 0.5 to 5 |
| O=c1[nH]c(C2=C[C@H](N3CCN(c4ccc(F)cc4)CC3)CC2)cc2ncccc12 [Compound 22, (R)-7-(3-(4-(4-fluorophenyl)piperazin-1-yl)cyclopent-1-en-1-yl)-1,6-naphthyridin-5(6H)-one] | 0.5 to 5 |
| N#Cc1ccc(N2CCN([C@H]3C=C(c4cc5ncccc5c(=O)[nH]4)CC3)CC2)c(F)c1 [Compound 23, (R)-3-fluoro-4-(4-(3-(5-oxo-5,6-dihydro-1,6-naphthyridin-7-yl)cyclopent-2-en-1-yl)piperazin-1-yl)benzonitrile] | 0.5 to 5 |
| O=c1[nH]c(C2=C[C@H](N3CCN(c4ccc(Cl)cc4)CC3)CC2)cc2ncccc12 [Compound 24, (R)-7-(3-(4-(4-chlorophenyl)piperazin-1-yl)cyclopent-1-en-1-yl)-1,6-naphthyridin-5(6H)-one] | 0.5 to 5 |
| COc1ccc(N2CCN([C@H]3C=C(c4cc5ncccc5c(=O)[nH]4)CC3)CC2)cc1 [Compound 25, (R)-7-(3-(4-(4-methoxyphenyl)piperazin-1-yl)cyclopent-1-en-1-yl)-1,6-naphthyridin-5(6H)-one] | 0.5 to 5 |
| Cc1ccc(N2CCN([C@H]3C=C(c4cc5ncccc5c(=O)[nH]4)CC3)CC2)cc1 [Compound 26, (R)-7-(3-(4-(p-tolyl)piperazin-1-yl)cyclopent-1-en-1-yl)-1,6-naphthyridin-5(6H)-one] | 0.5 to 5 |
| CNc1ccc(N2CCN([C@H]3C=C(c4cc5ncccc5c(=O)[nH]4)CC3)CC2)cc1 [Compound 27, (R)-7-(3-(4-(4-(methylamino)phenyl)piperazin-1-yl)cyclopent-1-en-1-yl)-1,6-naphthyridin-5(6H)-one] | 5.1 to 50 |
| CC(=O)c1ccc(N2CCN([C@H]3C=C(c4cc5ncccc5c(=O)[nH]4)CC3)CC2)cc1 [Compound 28, (R)-7-(3-(4-(4-acetylphenyl)piperazin-1-yl)cyclopent-1-en-1-yl)-1,6-naphthyridin-5(6H)-one] | 0.5 to 5 |
| O=C1CCc2cc(N3CCN([C@H]4C=C(c5cc6ncccc6c(=O)[nH]5)CC4)CC3)ccc21 [Compound 29, (R)-7-(3-(4-(1-oxo-2,3-dihydro-1H-inden-5-yl)piperazin-1-yl)cyclopent-1-en-1-yl)-1,6-naphthyridin-5(6H)-one] | 0.5 to 5 |
| O=c1[nH]c(C2=C[C@H](N3CCN(c4ccc5c(c4)CCC5)CC3)CC2)cc2ncccc12 [Compound 30, (R)-7-(3-(4-(2,3-dihydro-1H-inden-5-yl)piperazin-1-yl)cyclopent-1-en-1-yl)-1,6-naphthyridin-5(6H)-one] | 0.5 to 5 |
| O=C1OCc2cc(N3CCN([C@H]4C=C(c5cc6ncccc6c(=O)[nH]5)CC4)CC3)ccc21 [Compound 31, (R)-7-(3-(4-(1-oxo-1,3-dihydroisobenzofuran-5-yl)piperazin-1-yl)cyclopent-1-en-1-yl)-1,6-naphthyridin-5(6H)-one] | 0.5 to 5 |
| O=C1NCc2cc(N3CCN([C@H]4C=C(c5cc6ncccc6c(=O)[nH]5)CC4)CC3)ccc21 [Compound 32, (R)-7-(3-(4-(1-oxoisoindolin-5-yl)piperazin-1-yl)cyclopent-1-en-1-yl)-1,6-naphthyridin-5(6H)-one] | 0.5 to 5 |
| O=c1[nH]c(C2=C[C@H](N3CCN(c4ccc(C(F)(F)F)cc4)CC3)CC2)cc2ncccc12 [Compound 33, (R)-7-(3-(4-(4-(trifluoromethyl)phenyl)piperazin-1-yl)cyclopent-1-en-1-yl)-1,6-naphthyridin-5(6H)-one] | 5.1 to 50 |
| N#Cc1ccc(N2CCN([C@H]3C=C(c4cc5ncccc5c(=O)[nH]4)CC3)CC2)nc1 [Compound 34, (R)-6-(4-(3-(5-oxo-5,6-dihydro-1,6-naphthyridin-7-yl)cyclopent-2-en-1-yl)piperazin-1-yl)nicotinonitrile] | 0.5 to 5 |
| N#Cc1cnc(N2CCN([C@H]3C=C(c4cc5ncccc5c(=O)[nH]4)CC3)CC2)s1 [Compound 35, (R)-2-(4-(3-(5-oxo-5,6-dihydro-1,6-naphthyridin-7-yl)cyclopent-2-en-1-yl)piperazin-1-yl)thiazole-5-carbonitrile] | 0.5 to 5 |
